Data published in patent US20230085307A1, “PYRIDAZINONE COMPOUND AND HERBICIDE” (NISSAN CHEMICAL CORPORATION, priority 2019, published 2023).

Legend:
velvetleaf = assay: Test Example 4: herbicidal effect by soil treatment (Table 19, symbol M); type: in vivo, velvetleaf (Abutilon theophrasti)
In short: (§1)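 Step 1: sow seeds in sterilized diluvial soil, cover ~1.5 cm. Step 2: spray diluted emulsion onto soil surface at predetermined rate. Step 3: greenhouse, 25–30° C, three weeks. Step 4: grade effect on each plant by earlier criteria.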

wild oat [1] = assay: Test Example 4: herbicidal effect by soil treatment (Table 19, symbol I); type: in vivo, wild oat (Avena fatua)
In short: as §1

southern crabgrass = assay: Test Example 4: herbicidal effect by soil treatment (Table 19, symbol F); type: in vivo, southern crabgrass (Digitaria ciliaris)
In short: as §1

Japanese bulrush [2] = assay: Test Example 1: herbicidal activity, application before weed generation under submerged conditions (Table 16, symbol B); type: in vivo, Japanese bulrush (Schoenoplectus juncoides)
In short: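 Submerged Wagner pots (alluvial soil, 4 cm water) sown with weed seeds and planted with 2.5-leaf rice seedlings; emulsifiable concentrate diluted in water applied to water surface on sowing day. Held in greenhouse at 25-30 °C; injury scored 0-5 by herbicidal rate after three weeks.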

late watergrass = assay: Test Example 2: herbicidal activity, application during weed generation under submerged conditions (Table 17, symbol A); type: in vivo, late watergrass (Echinochloa oryzicola); details: application during weed generation, submerged conditions
In short: (§2)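 3-wk visual-criteria score after one water-surface dose. Emulsion formulation, water-diluted to set rate; applied at 1–2 leaf stage; alluvial soil, 4 cm standing water; seeds co-sown; greenhouse 25–30° C.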

barnyard grass = assay: Test Example 5: herbicidal effect by foliage application, plastic box (Table 20, symbol H); type: in vivo, barnyard grass (Echinochloa crus-galli); details: foliage application, three weeks after application
In short: (§3)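 Foliar spray test: emulsion formulation diluted in water to a set application rate, sprayed onto 14-day-old plants raised in diluvial soil at 25° C to 30° C under glass. Both herbicidal effect and crop effect rated visually three weeks later.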

blackgrass [3] = assay: Test Example 4: herbicidal effect by soil treatment (Table 19, symbol J); type: in vivo, blackgrass (Alopecurus myosuroides)
In short: as §1

blackgrass [4] = assay: Test Example 5: herbicidal effect by foliage application, plastic box (Table 20, symbol J); type: in vivo, blackgrass (Alopecurus myosuroides); details: foliage application, three weeks after application
In short: as §3

wild oat [5] = assay: Test Example 5: herbicidal effect by foliage application, plastic box (Table 20, symbol I); type: in vivo, wild oat (Avena fatua); details: foliage application, three weeks after application
In short: as §3

rice flat sedge = assay: Test Example 3: herbicidal effect by foliage application, Wagner pot (Table 18, symbol E); type: in vivo, rice flat sedge (Cyperus iria)
In short: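 Plants were sown in alluvial soil held under 0.1–0.5 cm standing water and grown 14 days in a greenhouse at 25–30 °C. An emulsifiable formulation, water-diluted to the set dose, was then sprayed onto the foliage, and effects were scored three weeks later using previously defined criteria.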

oval-leafed pondweed = assay: Test Example 2: herbicidal activity, application during weed generation under submerged conditions (Table 17, symbol C); type: in vivo, oval-leafed pondweed (Monochoria vaginalis); details: application during weed generation, submerged conditions
In short: as §2

redroot pigweed = assay: Test Example 4: herbicidal effect by soil treatment (Table 19, symbol N); type: in vivo, redroot pigweed (Amaranthus retroflexus)
In short: as §1

chickweed = assay: Test Example 4: herbicidal effect by soil treatment (Table 19, symbol P); type: in vivo, common chickweed (Stellaria media)
In short: as §1

Japanese bulrush [6] = assay: Test Example 2: herbicidal activity, application during weed generation under submerged conditions (Table 17, symbol B); type: in vivo, Japanese bulrush (Schoenoplectus juncoides); details: application during weed generation, submerged conditions
In short: as §2

green foxtail = assay: Test Example 4: herbicidal effect by soil treatment (Table 19, symbol G); type: in vivo, green foxtail (Setaria viridis)
In short: as §1

[7] = amount of applied herbicide 390 g/ha
[8] = amount of applied herbicide 320 g/ha

Row | Structure (SMILES) | M: velvetleaf, herbicidal effect grade (velvetleaf; [8]) | I: wild oat, herbicidal effect grade (wild oat [1]; [8]) | F: southern crabgrass, herbicidal effect grade (southern crabgrass; [8]) | Herbicidal effect, B: Japanese bulrush (Japanese bulrush [2]; [8]) | herbicidal effect rating, A: late watergrass (late watergrass; AAH 320 g/ha) | herbicidal effect on barnyard grass (H) (barnyard grass; 320 g/ha) | J: blackgrass, herbicidal effect grade (blackgrass [3]; [8]) | herbicidal effect on blackgrass (J) (blackgrass [4]; 320 g/ha) | herbicidal effect on wild oat (I) (wild oat [5]; 320 g/ha) | Herbicidal effect on E (rice flat sedge), foliage application (rice flat sedge; [8]) | herbicidal effect rating, C: oval-leafed pondweed (oval-leafed pondweed; AAH 320 g/ha) | N: redroot pigweed, herbicidal effect grade (redroot pigweed; [8]) | P: chickweed, herbicidal effect grade (chickweed; [8]) | herbicidal effect rating, B: Japanese bulrush (Japanese bulrush [6]; AAH 320 g/ha) | G: green foxtail, herbicidal effect grade (green foxtail; [8]) | also measured
1 | CCCC(=O)Oc1c(C)nn(C)c(=O)c1-c1c(-c2ccc(F)cc2)oc2ccc(C)cc12 [9-005] |  |  |  |  |  |  |  |  |  |  |  |  |  |  |  | M: velvetleaf, herbicidal effect grade (velvetleaf; [7]): 0 (Herbicidal rate of 5% or less (almost no effect)); I: wild oat, herbicidal effect grade (wild oat [1]; [7]): 0 (Herbicidal rate of 5% or less (almost no effect)); F: southern crabgrass, herbicidal effect grade (southern crabgrass; [7]): 0 (Herbicidal rate of 5% or less (almost no effect)); Herbicidal effect, B: Japanese bulrush (Japanese bulrush [2]; [7]): 4 (Herbicidal rate of 70% or more and less than 90%); herbicidal effect rating, A: late watergrass (late watergrass; AAH 390 g/ha): 0 (Herbicidal rate of 5% or less (almost no effect)); herbicidal effect on barnyard grass (H) (barnyard grass; 390 g/ha): 0 (Herbicidal rate of 5% or less (almost no effect)); J: blackgrass, herbicidal effect grade (blackgrass [3]; [7]): 0 (Herbicidal rate of 5% or less (almost no effect)); herbicidal effect on blackgrass (J) (blackgrass [4]; 390 g/ha): 0 (Herbicidal rate of 5% or less (almost no effect)); herbicidal effect on wild oat (I) (wild oat [5]; 390 g/ha): 0 (Herbicidal rate of 5% or less (almost no effect)); Herbicidal effect on E (rice flat sedge), foliage application (rice flat sedge; [7]): 2 (Herbicidal rate of 20% or more and less than 40%); herbicidal effect rating, C: oval-leafed pondweed (oval-leafed pondweed; AAH 390 g/ha): 3 (Herbicidal rate of 40% or more and less than 70%); N: redroot pigweed, herbicidal effect grade (redroot pigweed; [7]): 3 (Herbicidal rate of 40% or more and less than 70%); P: chickweed, herbicidal effect grade (chickweed; [7]): 5 (Herbicidal rate of 90% or more (almost completely withered)); herbicidal effect rating, B: Japanese bulrush (Japanese bulrush [6]; AAH 390 g/ha): 1 (Herbicidal rate of 5% or more and less than 20%); G: green foxtail, herbicidal effect grade (green foxtail; [7]): 0 (Herbicidal rate of 5% or less (almost no effect))
2 | COc1ccc(-c2oc3ccc(C)cc3c2-c2c(O)c(C)nn(C)c2=O)cc1 [9-007] | 3 (Herbicidal rate of 40% or more and less than 70%) | 1 (Herbicidal rate of 5% or more and less than 20%) | 5 (Herbicidal rate of 90% or more (almost completely withered)) | 5 (Herbicidal rate of 90% or more (almost completely withered)) | 4 (Herbicidal rate of 70% or more and less than 90%) | 4 (Herbicidal rate of 70% or more and less than 90%) | 4 (Herbicidal rate of 70% or more and less than 90%) | 4 (Herbicidal rate of 70% or more and less than 90%) | 4 (Herbicidal rate of 70% or more and less than 90%) | 5 (Herbicidal rate of 90% or more (almost completely withered)) | 5 (Herbicidal rate of 90% or more (almost completely withered)) | 5 (Herbicidal rate of 90% or more (almost completely withered)) | 4 (Herbicidal rate of 70% or more and less than 90%) | 5 (Herbicidal rate of 90% or more (almost completely withered)) | 3 (Herbicidal rate of 40% or more and less than 70%) | 
3 | CCCC(=O)Oc1c(C)nn(C)c(=O)c1-c1c(-c2ccc(OC)cc2)oc2ccc(C)cc12 [9-008] | 0 (Herbicidal rate of 5% or less (almost no effect)) | 0 (Herbicidal rate of 5% or less (almost no effect)) | 3 (Herbicidal rate of 40% or more and less than 70%) | 5 (Herbicidal rate of 90% or more (almost completely withered)) | 1 (Herbicidal rate of 5% or more and less than 20%) | 3 (Herbicidal rate of 40% or more and less than 70%) | 0 (Herbicidal rate of 5% or less (almost no effect)) | 1 (Herbicidal rate of 5% or more and less than 20%) | 3 (Herbicidal rate of 40% or more and less than 70%) | 5 (Herbicidal rate of 90% or more (almost completely withered)) | 5 (Herbicidal rate of 90% or more (almost completely withered)) | 5 (Herbicidal rate of 90% or more (almost completely withered)) | 0 (Herbicidal rate of 5% or less (almost no effect)) | 5 (Herbicidal rate of 90% or more (almost completely withered)) | 2 (Herbicidal rate of 20% or more and less than 40%) | 
4 | CCOc1ccc(-c2oc3ccc(F)cc3c2-c2c(O)c(C)nn(C)c2=O)cc1 [9-021] | 3 (Herbicidal rate of 40% or more and less than 70%) | 0 (Herbicidal rate of 5% or less (almost no effect)) | 4 (Herbicidal rate of 70% or more and less than 90%) | 5 (Herbicidal rate of 90% or more (almost completely withered)) | 4 (Herbicidal rate of 70% or more and less than 90%) | 3 (Herbicidal rate of 40% or more and less than 70%) | 4 (Herbicidal rate of 70% or more and less than 90%) | 1 (Herbicidal rate of 5% or more and less than 20%) | 4 (Herbicidal rate of 70% or more and less than 90%) | 5 (Herbicidal rate of 90% or more (almost completely withered)) | 4 (Herbicidal rate of 70% or more and less than 90%) | 5 (Herbicidal rate of 90% or more (almost completely withered)) | 0 (Herbicidal rate of 5% or less (almost no effect)) | 3 (Herbicidal rate of 40% or more and less than 70%) | 4 (Herbicidal rate of 70% or more and less than 90%) | 
5 | CCCOc1ccc(-c2oc3ccc(F)cc3c2-c2c(O)c(C)nn(C)c2=O)cc1 [9-023] | 3 (Herbicidal rate of 40% or more and less than 70%) | 0 (Herbicidal rate of 5% or less (almost no effect)) | 4 (Herbicidal rate of 70% or more and less than 90%) | 5 (Herbicidal rate of 90% or more (almost completely withered)) | 5 (Herbicidal rate of 90% or more (almost completely withered)) | 5 (Herbicidal rate of 90% or more (almost completely withered)) | 0 (Herbicidal rate of 5% or less (almost no effect)) | 4 (Herbicidal rate of 70% or more and less than 90%) | 3 (Herbicidal rate of 40% or more and less than 70%) | 5 (Herbicidal rate of 90% or more (almost completely withered)) | 5 (Herbicidal rate of 90% or more (almost completely withered)) | 5 (Herbicidal rate of 90% or more (almost completely withered)) | 0 (Herbicidal rate of 5% or less (almost no effect)) | 3 (Herbicidal rate of 40% or more and less than 70%) | 5 (Herbicidal rate of 90% or more (almost completely withered)) | 
